pIC50: −log10 of the molar value.
Biological target: T1, MAGL (Homo sapiens, UniProt Q99685)
T1 sequence (Q99685 1-303): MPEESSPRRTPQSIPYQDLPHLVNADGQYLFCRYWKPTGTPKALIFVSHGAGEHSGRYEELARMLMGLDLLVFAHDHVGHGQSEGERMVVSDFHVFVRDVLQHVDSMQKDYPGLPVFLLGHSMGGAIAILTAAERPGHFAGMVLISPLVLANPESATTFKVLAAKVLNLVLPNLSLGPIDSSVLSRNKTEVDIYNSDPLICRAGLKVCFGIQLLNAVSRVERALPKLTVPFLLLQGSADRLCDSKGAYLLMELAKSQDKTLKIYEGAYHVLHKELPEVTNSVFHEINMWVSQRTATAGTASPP
Test: 2-AG assay (MAGL inhibitory activity, hydrolysis of 2-arachidonoylglycerol to arachidonic acid followed by mass spectrometry)
Type: biochemical
Settings: 8 μM 2-arachidonoylglycerol, 15 min pre-incubation, 30 min incubation at RT, RapidFire MS readout
How it was run: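 Arachidonic acid released from 8 μM 2-arachidonoylglycerol was quantified by online SPE triple-quadrupole MS (negative ESI, 303.1→259.1), normalised to d8-arachidonic acid internal standard. Reaction ran 30 min at RT after 15 min RT compound pre-incubation with […] MAGL in TRIS/EDTA/Tween-20 buffer, 2.5% DMSO.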

pIC50	Structure (SMILES)
7.36	CCc1cn(C2CC3(C2)CN(C(=O)c2ccc(-c4noc(C(C)(C)C)n4)cc2)C3)cn1 [Example 157, [4-(5-tert-butyl-1,2,4-oxadiazol-3-yl)phenyl]-[6-(4-ethylimidazol-1-yl)-2-azaspiro[3.3]heptan-2-yl]methanone]
7.16	CC(C)(C)c1nc(-c2ccc(C(=O)N3CC4(CC(n5cnc(C(F)(F)F)c5)C4)C3)cc2)no1 [Example 158, [4-(5-tert-butyl-1,2,4-oxadiazol-3-yl)phenyl]-[6-[4-(trifluoromethyl)imidazol-1-yl]-2-azaspiro[3.3]heptan-2-yl]methanone]
6.50	CC(C)(C)c1nc(-c2ccc(C(=O)N3CC4(CC(n5cnc(Cl)c5)C4)C3)cc2)no1 [Example 159, [4-(5-tert-butyl-1,2,4-oxadiazol-3-yl)phenyl]-[6-(4-chloroimidazol-1-yl)-2-azaspiro[3.3]heptan-2-yl]methanone]
5.99	CC(C)(C)c1nc(-c2ccc(C(=O)N3CC4(CC(n5cnc(C#N)c5)C4)C3)cc2)no1 [Example 160, 1-[2-[4-(5-tert-butyl-1,2,4-oxadiazol-3-yl)benzoyl]-2-azaspiro[3.3]heptan-6-yl]imidazole-4-carbonitrile]
6.32	CC(C)(C)c1nc(C23CC(C(=O)N4CC5(CC(n6cnc(C7CC7)c6)C5)C4)(C2)C3)no1 [Example 162, [3-(5-tert-butyl-1,2,4-oxadiazol-3-yl)-1-bicyclo[1.1.1]pentanyl]-[6-(4-cyclopropylimidazol-1-yl)-2-azaspiro[3.3]heptan-2-yl]methanone]
6.72	CC(C)(C)c1nc(C23CC(C(=O)N4CC5(CC(n6cnc(C7CC7)n6)C5)C4)(C2)C3)no1 [Example 163, [3-(5-tert-butyl-1,2,4-oxadiazol-3-yl)-1-bicyclo[1.1.1]pentanyl]-[6-(3-cyclopropyl-1,2,4-triazol-1-yl)-2-azaspiro[3.3]heptan-2-yl]methanone]
5.83	CC(C)(C)c1nnc(-c2ccc(C(=O)N3CC4(CC(n5cnc(Cl)n5)C4)C3)cc2)o1 [Example 168, [4-(5-tert-butyl-1,3,4-oxadiazol-2-yl)phenyl]-[6-(3-chloro-1,2,4-triazol-1-yl)-2-azaspiro[3.3]heptan-2-yl]methanone]
6.18	CC(C)(C)c1nnc(-c2ccc(C(=O)N3CC4(CC(n5ccc(C6CC6)n5)C4)C3)cc2)o1 [Example 169, [4-(5-tert-butyl-1,3,4-oxadiazol-2-yl)phenyl]-[6-(3-cyclopropylpyrazol-1-yl)-2-azaspiro[3.3]heptan-2-yl]methanone]
6.54	CC(C)(C)n1cc(-c2ccc(C(=O)N3CC4(CC(n5cnc(Cl)n5)C4)C3)cc2)cn1 [Example 170, [4-(1-tert-butylpyrazol-4-yl)phenyl]-[6-(3-chloro-1,2,4-triazol-1-yl)-2-azaspiro[3.3]heptan-2-yl]methanone]
7.02	CC(C)(C)c1nc(-c2ccc(C(=O)N3CC4(CC(n5ccc(C6CC6)n5)C4)C3)cc2)no1 [Example 171, [4-(5-tert-butyl-1,2,4-oxadiazol-3-yl)phenyl]-[6-(3-cyclopropylpyrazol-1-yl)-2-azaspiro[3.3]heptan-2-yl]methanone]
6.77	CC(C)(C)c1nc(-c2ccc(C(=O)N3CC4(CC(n5cnc(Cl)n5)C4)C3)cc2)no1 [Example 172, [4-(5-tert-butyl-1,2,4-oxadiazol-3-yl)phenyl]-[6-(3-chloro-1,2,4-triazol-1-yl)-2-azaspiro[3.3]heptan-2-yl]methanone]
6.74	Cc1cc(C(=O)N2CC3(CC(n4cnc(Cl)n4)C3)C2)cnc1OCC1(C(F)(F)F)CC1 [Example 174, [6-(3-chloro-1,2,4-triazol-1-yl)-2-azaspiro[3.3]heptan-2-yl]-[5-methyl-6-[[1-(trifluoromethyl)cyclopropyl]methoxy]-3-pyridyl]methanone]
6.66	Cc1cc(C(=O)N2CC3(CC(n4cnc(Cl)n4)C3)C2)cnc1OC(C)(C)C(F)(F)F [Example 175, [6-(3-chloro-1,2,4-triazol-1-yl)-2-azaspiro[3.3]heptan-2-yl]-[5-methyl-6-(2,2,2-trifluoro-1,1-dimethyl-ethoxy)-3-pyridyl]methanone]
5.99	CC(C)(C)c1nc(-c2ccc(C(=O)N3CC4(C3)CC(O)(c3cnc(C5CC5)o3)C4)cc2)no1 [Example 179, [4-(5-tert-butyl-1,2,4-oxadiazol-3-yl)phenyl]−[6-(2-cyclopropyloxazol-5-yl)-6-hydroxy-2-azaspiro[3.3]heptan-2-yl]methanone]
5.33	CC(C)(C)c1nc(-c2ccc(C(=O)N3CC4(CC(n5nccc5C5CC5)C4)C3)cc2)no1 [Example 180, [4-(5-tert-butyl-1,2,4-oxadiazol-3-yl)phenyl]-[6-(5-cyclopropylpyrazol-1-yl)-2-azaspiro[3.3]heptan-2-yl]methanone]
5.34	CC(C)(C)n1cc(C2CN(C(=O)N3CC4(CC(n5cnc(C6CC6)n5)C4)C3)C2)cn1 [Example 181, [3-(1-tert-butylpyrazol-4-yl)azetidin-1-yl]−[6-(3-cyclopropyl-1,2,4-triazol-1-yl)-2-azaspiro[3.3]heptan-2-yl]methanone]
10.00	O=C(N1CC(Oc2ccc(C3CC3)cc2)C1)N1CC2(CC(n3cnc(C4CC4)n3)C2)C1 [Example 183, (6-(3-cyclopropyl-1H-1,2,4-triazol-1-yl)-2-azaspiro[3.3]heptan-2-yl)(3-(4-cyclopropylphenoxy)azetidin-1-yl)methanone]

The remaining lines, values behind:

Structure (SMILES)	pIC50
O=C(N1CC(c2cn(C3(C(F)(F)F)CC3)nn2)C1)N1CC2(CC(n3cnc(C4CC4)n3)C2)C1 [Example 164, [6-(3-cyclopropyl-1,2,4-triazol-1-yl)-2-azaspiro[3.3]heptan-2-yl]-[3-[1-[1-(trifluoromethyl)cyclo-propyl]triazol-4-yl]azetidin-1-yl]methanone]	7.19
O=C(N1CC(n2cc(OCC(F)(F)F)cn2)C1)N1CC2(CC(n3cnc(C4CC4)n3)C2)C1 [Example 165, [6-(3-cyclopropyl-1,2,4-triazol-1-yl)-2-azaspiro[3.3]heptan-2-yl]-[3-[4-(2,2,2-trifluoroethoxy)pyrazol-1-yl]azetidin-1-yl]methanone]	6.99
O=C(N1CC(c2nc(C3(C(F)(F)F)CC3)no2)C1)N1CC2(CC(n3cnc(C4CC4)n3)C2)C1 [Example 166, [6-(3-cyclopropyl-1,2,4-triazol-1-yl)-2-azaspiro[3.3]heptan-2-yl]-[3-[3-[1-(trifluoromethyl)cyclo-propyl]-1,2,4-oxadiazol-5-yl]azetidin-1-yl]methanone]	7.01
O=C(N1CC(c2cn(C3(C(F)(F)F)COC3)nn2)C1)N1CC2(CC(n3cnc(C4CC4)n3)C2)C1 [Example 167, [6-(3-cyclopropyl-1,2,4-triazol-1-yl)-2-azaspiro[3.3]heptan-2-yl]-[3-[1-[3-(trifluoromethyl)oxetan-3-yl]triazol-4-yl]azetidin-1-yl]methanone]	7.07
O=C(C1CC(COCC2(C(F)(F)F)CC2)C1)N1CC2(CC(n3cnc(C4CC4)n3)C2)C1 (centres unmarked) [Example 173, [6-(3-cyclopropyl-1,2,4-triazol-1-yl)-2-azaspiro[3.3]heptan-2-yl]−[3-[[1-(trifluoromethyl)cyclopropyl]methoxymethyl]cyclobutyl]methanone]	6.26
O=C(N1CC(OCc2ccc(C(F)(F)F)cc2)C1)N1CC2(CC(n3cnc(N4CCC4)n3)C2)C1 [Example 177, (6-(3-(azetidin-1-yl)-1H-1,2,4-triazol-1-yl)-2-azaspiro[3.3]heptan-2-yl)(3-((4-(trifluoromethyl)benzyl)oxy)azetidin-1-yl)methanone]	6.85
Cc1cc(C2CN(C(=O)N3CC4(CC(n5cnc(C6CC6)n5)C4)C3)C2)ccc1OC(F)(F)F [Example 182, [6-(3-cyclopropyl-1,2,4-triazol-1-yl)-2-azaspiro[3.3]heptan-2-yl]-[3-[3-methyl-4-(trifluoromethoxy)phenyl]azetidin-1-yl]methanone]	5.59
O=C(N1CC2(CC(Cc3ccc(F)cc3F)C2)C1)N1CC2(CC(n3cnc(C4CCC4)n3)C2)C1 [Example 184, [6-(3-cyclobutyl-1,2,4-triazol-1-yl)-2-azaspiro[3.3]heptan-2-yl]-[6-[(2,4-difluorophenyl)methyl]-2-azaspiro[3.3]heptan-2-yl]methanone]	10.00
O=C(N1CC(Oc2nccc(C3CC3)c2Cl)C1)N1CC2(CC(n3cnc(C4CC4)n3)C2)C1 [Example 185, [3-[(3-chloro-4-cyclopropyl-2-pyridyl)oxy]azetidin-1-yl]-[6-(3-cyclopropyl-1,2,4-triazol-1-yl)-2-azaspiro[3.3]heptan-2-yl]methanone]	10.00
CCc1ncn(C2CC3(C2)CN(C(=O)N2CC4(CC(Cc5ccc(F)cc5F)C4)C2)C3)n1 [Example 186, [6-[(2,4-difluorophenyl)methyl]-2-azaspiro[3.3]heptan-2-yl]-[6-(3-ethyl-1,2,4-triazol-1-yl)-2-azaspiro[3.3]heptan-2-yl]methanone]	10.00
O=C(N1CC(Oc2ccc(C(F)(F)F)c(C3CC3)c2)C1)N1CC2(CC(n3cnc(C4CC4)n3)C2)C1 [Example 187, [6-(3-cyclopropyl-1,2,4-triazol-1-yl)-2-azaspiro[3.3]heptan-2-yl]-[3-[3-cyclopropyl-4-(trifluoromethyl)phenoxy]azetidin-1-yl]methanone]	9.70
N#Cc1cc(C2CC2)ccc1OC1CN(C(=O)N2CC3(CC(n4cnc(C5CC5)n4)C3)C2)C1 [Example 188, 5-cyclopropyl-2-[1-[6-(3-cyclopropyl-1,2,4-triazol-1-yl)-2-azaspiro[3.3]heptane-2-carbonyl]azetidin-3-yl]oxy-benzonitrile]	9.70

— patent publication US20240199587A1, “HETEROCYCLIC COMPOUNDS” (Hoffmann-La Roche Inc., priority 2021, published 2024)
